Molecules are shown by their SMILES.

Common to all, as to experiment: cell-based
In one test the target is Kv1.5 (Homo sapiens, UniProt P22460).
Another test concerns the target T1, TRPC5 (Homo sapiens, UniProt Q9UL62).
T1 sequence (Q9UL62 1-973): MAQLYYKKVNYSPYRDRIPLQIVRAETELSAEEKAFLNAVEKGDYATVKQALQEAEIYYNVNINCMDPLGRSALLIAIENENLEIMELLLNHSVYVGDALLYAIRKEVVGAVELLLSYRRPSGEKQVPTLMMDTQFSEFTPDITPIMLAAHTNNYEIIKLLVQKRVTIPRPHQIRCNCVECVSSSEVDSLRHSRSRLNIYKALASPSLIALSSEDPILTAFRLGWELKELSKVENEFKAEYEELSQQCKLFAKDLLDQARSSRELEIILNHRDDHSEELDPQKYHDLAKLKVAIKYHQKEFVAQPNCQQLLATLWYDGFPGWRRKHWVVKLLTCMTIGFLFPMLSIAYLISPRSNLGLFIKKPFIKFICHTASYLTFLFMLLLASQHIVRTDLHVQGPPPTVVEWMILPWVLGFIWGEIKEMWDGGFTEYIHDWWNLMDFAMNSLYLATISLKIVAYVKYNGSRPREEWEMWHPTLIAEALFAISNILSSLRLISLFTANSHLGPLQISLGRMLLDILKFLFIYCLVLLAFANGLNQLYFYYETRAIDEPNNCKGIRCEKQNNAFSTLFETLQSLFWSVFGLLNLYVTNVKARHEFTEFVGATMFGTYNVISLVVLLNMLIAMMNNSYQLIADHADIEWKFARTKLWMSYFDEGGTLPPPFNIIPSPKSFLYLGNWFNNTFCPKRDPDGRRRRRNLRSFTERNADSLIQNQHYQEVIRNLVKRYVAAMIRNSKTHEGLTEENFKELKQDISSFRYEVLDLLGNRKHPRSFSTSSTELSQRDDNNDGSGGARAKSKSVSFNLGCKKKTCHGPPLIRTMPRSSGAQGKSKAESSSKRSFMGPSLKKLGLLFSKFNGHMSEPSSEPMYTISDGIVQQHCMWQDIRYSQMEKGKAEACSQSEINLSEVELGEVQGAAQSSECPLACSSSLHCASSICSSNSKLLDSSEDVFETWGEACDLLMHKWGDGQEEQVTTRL

In the next test the target is Cav1.2 (Homo sapiens, UniProt Q13936).
Cav1.2, sequence (Q13936 whole entry): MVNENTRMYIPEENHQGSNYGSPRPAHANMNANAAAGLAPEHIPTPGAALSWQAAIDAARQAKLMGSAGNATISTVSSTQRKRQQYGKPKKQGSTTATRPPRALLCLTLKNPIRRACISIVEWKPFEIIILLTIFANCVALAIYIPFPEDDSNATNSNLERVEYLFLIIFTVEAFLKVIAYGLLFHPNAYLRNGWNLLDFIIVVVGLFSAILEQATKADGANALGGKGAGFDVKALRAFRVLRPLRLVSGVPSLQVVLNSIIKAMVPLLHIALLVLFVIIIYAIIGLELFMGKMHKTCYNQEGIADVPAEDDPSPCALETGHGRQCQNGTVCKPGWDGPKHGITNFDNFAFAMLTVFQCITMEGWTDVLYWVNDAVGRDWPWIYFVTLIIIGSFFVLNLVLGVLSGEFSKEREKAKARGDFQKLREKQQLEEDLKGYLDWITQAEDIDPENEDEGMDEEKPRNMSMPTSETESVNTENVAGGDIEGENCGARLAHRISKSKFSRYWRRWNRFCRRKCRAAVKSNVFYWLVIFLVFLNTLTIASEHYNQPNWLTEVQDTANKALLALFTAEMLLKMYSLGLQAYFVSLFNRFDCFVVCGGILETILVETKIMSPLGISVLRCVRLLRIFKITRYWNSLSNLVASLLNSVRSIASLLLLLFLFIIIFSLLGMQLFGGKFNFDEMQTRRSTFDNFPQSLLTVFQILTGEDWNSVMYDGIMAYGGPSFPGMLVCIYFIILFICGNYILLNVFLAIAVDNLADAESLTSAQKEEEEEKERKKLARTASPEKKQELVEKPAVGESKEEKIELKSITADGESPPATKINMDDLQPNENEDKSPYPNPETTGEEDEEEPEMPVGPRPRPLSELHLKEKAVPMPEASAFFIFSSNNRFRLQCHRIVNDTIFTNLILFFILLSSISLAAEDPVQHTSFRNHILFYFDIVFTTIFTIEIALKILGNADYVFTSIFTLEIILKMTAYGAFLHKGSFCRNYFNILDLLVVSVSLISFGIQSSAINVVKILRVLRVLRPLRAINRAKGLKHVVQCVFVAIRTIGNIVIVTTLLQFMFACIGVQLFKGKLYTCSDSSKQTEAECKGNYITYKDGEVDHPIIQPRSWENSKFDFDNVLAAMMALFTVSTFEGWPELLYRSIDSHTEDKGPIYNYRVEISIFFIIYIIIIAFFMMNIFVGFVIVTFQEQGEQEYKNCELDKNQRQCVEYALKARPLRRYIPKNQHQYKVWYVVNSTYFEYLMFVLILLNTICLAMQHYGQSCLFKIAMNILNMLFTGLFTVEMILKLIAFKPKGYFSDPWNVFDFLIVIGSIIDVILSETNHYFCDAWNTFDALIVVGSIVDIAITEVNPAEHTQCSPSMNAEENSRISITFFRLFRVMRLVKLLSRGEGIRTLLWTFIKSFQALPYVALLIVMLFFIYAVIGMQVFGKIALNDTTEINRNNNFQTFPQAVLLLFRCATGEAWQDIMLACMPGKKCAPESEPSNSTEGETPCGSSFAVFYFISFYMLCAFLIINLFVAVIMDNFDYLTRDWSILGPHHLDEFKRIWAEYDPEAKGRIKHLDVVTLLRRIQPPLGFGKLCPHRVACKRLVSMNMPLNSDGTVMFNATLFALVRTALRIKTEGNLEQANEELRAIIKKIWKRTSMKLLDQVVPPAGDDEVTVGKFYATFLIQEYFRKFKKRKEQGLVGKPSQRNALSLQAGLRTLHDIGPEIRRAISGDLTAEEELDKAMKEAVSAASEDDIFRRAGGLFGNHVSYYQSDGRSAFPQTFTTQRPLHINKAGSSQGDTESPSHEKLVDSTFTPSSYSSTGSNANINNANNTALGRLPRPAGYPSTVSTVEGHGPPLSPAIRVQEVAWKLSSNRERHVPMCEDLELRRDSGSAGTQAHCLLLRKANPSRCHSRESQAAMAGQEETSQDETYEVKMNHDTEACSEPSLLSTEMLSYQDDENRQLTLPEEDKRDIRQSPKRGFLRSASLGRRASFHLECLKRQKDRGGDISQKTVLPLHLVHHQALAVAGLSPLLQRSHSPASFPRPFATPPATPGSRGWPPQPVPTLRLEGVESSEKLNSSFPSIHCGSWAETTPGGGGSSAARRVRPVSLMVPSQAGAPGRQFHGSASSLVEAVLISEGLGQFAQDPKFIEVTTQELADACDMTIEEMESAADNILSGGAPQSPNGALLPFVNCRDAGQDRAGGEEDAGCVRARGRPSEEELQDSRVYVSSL

Kv1.5, sequence (P22460 whole entry): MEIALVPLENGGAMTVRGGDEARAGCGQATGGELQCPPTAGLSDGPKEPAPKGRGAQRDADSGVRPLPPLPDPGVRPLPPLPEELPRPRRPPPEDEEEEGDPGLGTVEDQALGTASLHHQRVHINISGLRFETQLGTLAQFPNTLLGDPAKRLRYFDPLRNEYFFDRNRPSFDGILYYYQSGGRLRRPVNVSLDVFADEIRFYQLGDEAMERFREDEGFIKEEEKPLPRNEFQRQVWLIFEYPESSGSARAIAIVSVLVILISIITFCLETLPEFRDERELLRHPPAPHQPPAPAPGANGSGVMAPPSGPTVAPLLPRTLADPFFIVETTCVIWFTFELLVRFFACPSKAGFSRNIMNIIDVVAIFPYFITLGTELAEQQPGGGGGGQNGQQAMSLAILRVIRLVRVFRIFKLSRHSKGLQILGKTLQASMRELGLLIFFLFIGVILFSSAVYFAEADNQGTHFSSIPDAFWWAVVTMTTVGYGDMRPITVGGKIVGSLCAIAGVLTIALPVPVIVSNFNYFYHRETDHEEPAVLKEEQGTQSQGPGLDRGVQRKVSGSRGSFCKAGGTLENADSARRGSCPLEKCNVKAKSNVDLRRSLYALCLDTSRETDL

With `O=C(c1ccccc1F)N1CCN(Cc2c(-c3ccc(Br)cc3)nc3ccccn23)CC1` [BAY 1000493, (4-{[2-(4-bromophenyl)imidazo[1,2-a]pyridin-3-yl]methyl}vpiperazin-1-yl)(2-fluorophenyl)methanone], the figures for the IC50 against Kv1.5, at TRPC5 and at Cav1.2 were 19 µM, above 30 µM and above 30 µM, respectively.

Source of the values: paper doi:10.1101/706168v1 (biorxiv, 2019).
